Tests used:
Type in all cases: physicochemical
[1] = Organic vapor stress experiments; settings: 11 days
Description: e. Organic Vapor Stress Experiments
Samples of starting material were exposed to vapors of a specified organic solvent for a given amount of time by placing open vials with solids tested into 20 mL vials containing solvent. Organic vapor stress experiments were conducted at ambient temperature.

[2] = Mechanical stress experiments (ball mill, dry/wet grinding)
From the text: h. Mechanical Stress Experiments
Samples of starting material were placed in a Retsch ball mill and milled for two five-minute cycles without solvent (dry grinding) or with a small amount of solvent added (wet grinding) scraping the solids between the cycles. Ten-minute cycles were used for milling of a selected sample without addition of solvent.

[3] = Aqueous vapor stress experiments; settings: for XRPD result after aqueous vapor stress: 2 days
Description: d. Aqueous Vapor Stress Experiments
Samples of starting material were exposed to ˜85% and ˜97% relative humidity at ambient temperature and ˜75% relative humidity at ˜40° C. for a specified duration.

[4] = Moisture sorption analysis (VTI SGA-100, 5 to 95% RH); settings: for hysteresis upon desorption: decreasing relative humidity; for hysteresis upon desorption / weight loss between ~95% and ~5% RH: desorption; for weight loss between ~95% and ~5% RH: ~95% to ~5% RH; for weight change upon equilibration at ~5% RH: moisture sorption; for weight gain between ~5% and ~75% RH: ~5% to ~75% RH; for weight gain between ~75% and ~95% RH: ~75% to ~95% RH
Description: 9. Moisture Sorption Analysis
Moisture sorption/desorption data were collected on a VTI SGA-100 Vapor Sorption Analyzer. NaCl and PVP were used as calibration standards. Samples were not dried prior to analysis. Sorption and desorption data were collected over a range from 5 to 95% RH at 10% RH increments under a nitrogen purge. The equilibrium criterion used for analysis was less than 0.0100% weight change in 5 minutes with a maximum equilibration time of 3 hours. Data were not corrected for the initial moisture content of the samples.

[5] = Slurry experiments (incl. water activity slurries)
Description: Solutions were prepared by addition of a solvent or solvent mixture to the starting material with excess solids present. The mixtures were then agitated in sealed vials at either ambient or a set temperature. For agitation at subambient temperature, chilled solvent was added and the sample was immediately transferred to a freezer. After a given amount of time, the solids were isolated.

Structure (SMILES): Fc1cc(F)c2c(c1)C[C@@H](n1c(CCNCc3ccccc3)c[nH]c1=S)CO2 [Form A, 1-[(3R)-6,8-difluoro-3,4-dihydro-2H-1-benzopyran-3-yl]-1,3-dihydro-5-[2-[(phenylmethyl)amino]ethyl]-2H-imidazole-2-thione]
- XRPD result after organic vapor stress ([1]; CHCl3, vapor stress): Form A
- XRPD result after organic vapor stress ([1]; EtOAc, vapor stress): Form A
- XRPD result after mechanical stress ([2]; Acetone, wet grinding, 2 × 5 min. cycles): Form A
- XRPD result after mechanical stress ([2]; DMF, wet grinding, 2 × 5 min. cycles): Form A
- XRPD result after mechanical stress ([2]; Dry grinding, 2 × 5 min. cycles): Form A (disordered)
- XRPD result after mechanical stress ([2]; Dry grinding, 2 × 10 min. cycles): Form A (disordered)
- XRPD result after mechanical stress ([2]; MEK, wet grinding, 2 × 5 min. cycles): Form A
- XRPD result after mechanical stress ([2]; TFE, wet grinding, 2 × 5 min. cycles): Form A
- XRPD result after mechanical stress ([2]; THF, wet grinding, 2 × 5 min. cycles): Form A
- stability of the crystal form upon mechanical stress ([2]; summary statement): remains stable as a crystal form
- XRPD result after aqueous vapor stress ([3]; 75% RH, 40° C.): Form A
- XRPD result after aqueous vapor stress ([3]; 85% RH): Form A
- stability of the crystal form upon aqueous vapor stress ([3]; summary statement): remains stable as a crystal form
- hygroscopicity ([4]; 5% to 95% RH): low hygroscopicity (a material that exhibits <0.5 wt(weight) % water uptake over a specified relative humidity range)
- hysteresis upon desorption [4]: hysteresis between around 85% to around 45% RH
- hysteresis upon desorption ([4]; listed as Lot 5): Small hysteresis
- hysteresis upon desorption ([4]; listed as lot 5): small hysteresis
- weight loss between ~95% and ~5% RH [4]: around 0.20 wt %
- weight loss between ~95% and ~5% RH ([4]; listed as Lot 5): ~0.20 wt %
- weight loss between ~95% and ~5% RH ([4]; listed as lot 5): ~0.20 wt %
- weight change upon equilibration at ~5% RH [4]: negligible loss
- weight change upon equilibration at ~5% RH ([4]; listed as Lot 5): Negligible loss upon equilibration at ~5% RH
- weight change upon equilibration at ~5% RH ([4]; listed as lot 5): negligible weight loss
- weight gain between ~5% and ~75% RH ([4]; sorption): around 0.02 wt %
- weight gain between ~5% and ~75% RH ([4]; sorption, listed as Lot 5): ~0.02 wt % gain between ~5% and ~75% RH
- weight gain between ~5% and ~75% RH ([4]; sorption, listed as lot 5): ~0.02 wt %
- total water uptake between ~5% and ~95% RH ([4]; sorption, ~5% to ~95% RH, listed as lot 5): ~0.21 wt %
- weight gain between ~75% and ~95% RH ([4]; sorption): around 0.19 wt %
- weight gain between ~75% and ~95% RH ([4]; sorption, listed as Lot 5): ~0.19 wt % gain between ~75% and ~95% RH
- weight gain between ~75% and ~95% RH ([4]; sorption, listed as lot 5): ~0.19 wt %

Structure (SMILES): Fc1cc(F)c2c(c1)C[C@@H](n1c(CCNCc3ccccc3)c[nH]c1=S)CO2 [compound 2, 1-[(3R)-6,8-difluoro-3,4-dihydro-2H-1-benzopyran-3-yl]-1,3-dihydro-5-[2-[(phenylmethyl)amino]ethyl]-2H-imidazole-2-thione]
- XRPD result of water activity slurry ([5]; amorphous starting material sample no. 2, Water, 50° C., 3 days, aw 1, sample no. 119): Material C (close to Form A + peaks)
- XRPD result of water activity slurry ([5]; amorphous starting material sample no. 3, Acetone/water (25/75), aw 0.95, ambient, 6 days, sample no. 108): Form A^c
- XRPD result of water activity slurry ([5]; amorphous starting material sample no. 3, Acetone/water (33/67), aw 0.93, ambient, 6 days, washed w/ acetone/water (33/67), sample no. 107): Form A^c
- XRPD result of water activity slurry ([5]; amorphous starting material sample no. 3, Acetone/water (60/40), aw 0.89, ambient, 6 days, sample no. 106): Form A
- XRPD result of water activity slurry ([5]; amorphous starting material sample no. 3, Acetone/water (82/18), aw 0.80, ambient, 6 days, sample no. 105): Form A
- XRPD result of water activity slurry ([5]; amorphous starting material sample no. 3, Acetone/water (88/12), aw 0.73, ambient, 6 days, sample no. 104): Form A
- XRPD result of water activity slurry ([5]; amorphous starting material sample no. 3, DMF/water (9/91), aw 0.98, RT, 5 days, washed w/ water, sample no. 115): Form A^c
- XRPD result of water activity slurry ([5]; amorphous starting material sample no. 3, DMSO/water (10/90), aw 0.97, RT, 5 days, washed w/ water, sample no. 116): Form A^c
- XRPD result of water activity slurry ([5]; amorphous starting material sample no. 3, EtOH/water (67/33), aw 0.82, 40° C., 2 days, sample no. 111): Form A^c
- XRPD result of water activity slurry ([5]; amorphous starting material sample no. 3, Ethanol/water (20/80), aw 0.95, ambient, 6 days, sample no. 113): Form A^c
- XRPD result of water activity slurry ([5]; amorphous starting material sample no. 3, Ethanol/water (47/53), aw 0.90, ambient, 6 days, sample no. 112): Form A^c
- XRPD result of water activity slurry ([5]; amorphous starting material sample no. 3, Ethanol/water (70/30), aw 0.80, ambient, 6 days, sample no. 110): Form A^c
- XRPD result of water activity slurry ([5]; amorphous starting material sample no. 3, Ethanol/water (80/20), aw 0.70, ambient, 6 days, sample no. 109): Form A^c
- XRPD result of water activity slurry ([5]; amorphous starting material sample no. 3, IPA/water (50/50), aw 0.96, 40° C., 2 days, sample no. 114): Form A^c
- XRPD result of water activity slurry ([5]; amorphous starting material sample no. 3, MeOH/water (50/50), aw 0.75, ambient, 6 days, washed w/ MeOH/water (50/50), sample no. 117): Form A^c
- XRPD result of water activity slurry ([5]; amorphous starting material sample no. 3, THF/water (50/50), aw 1.03, ambient, 6 days, washed w/ THF/water (50/50), VO, RT, 1 h, sample no. 118): Form A^c
- XRPD result of water activity slurry ([5]; amorphous starting material sample no. 3, Water, RT, 4 days, surfactant as wetting agent, aw 1, sample no. 121): Form A

Source: patent US8865913B2, “Crystalline forms and processes for their preparation” (BIAL-Portela & C.A., S.A, priority 2010, dated 2014)
